One assay has as its system A549. The assay can be described thus: Cytotoxicity against human A549 cells assessed as reduction in cell proliferation measured after 72 hrs by MTT assay. The class given is functional, cell-based. The following applies: A549, 72 h.
Assay [1] concerns HT-29. The experiment in a line: Cytotoxicity against human HT-29 cells assessed as reduction in cell proliferation measured after 72 hrs by MTT assay. Format: functional, cell-based. The following applies: HT-29, 72 h. Background: Tetrazolium dyes change colour on reduction, which living cells bring about.
In assay [2] the test system is HT-29. The assay can be described thus: Antiproliferative activity against human HT-29 cells assessed as reduction in cell proliferation at 0.37 ug/ml after 72 hrs by phase contrast microscopy. The class given is functional, cell-based.
Assay [3] concerns HT-29. The experiment in a line: Antiproliferative activity against human HT-29 cells assessed as increase in dead cell population at 10 ug/ml measured after 66 hrs by IncuCyte live-cell imaging analysis. Format: functional, cell-based.
The subject of assay [4] is HT-29. The experiment in a line: Antimigratory activity against human HT-29 cells assessed as reduction in cell migration at 3.33 ug/ml measured every hour for 72 hrs by IncuCyte real-time cell imaging analysis. Format: functional, cell-based.
Assay [5] concerns HT-29. The assay can be described thus: Antimigratory activity against human HT-29 cells assessed as reduction in cell migration at 3.33 ug/ml measured every hour for 48 hrs by IncuCyte real-time cell imaging analysis. The class given is functional, cell-based.
For assay [6], the system named is HT-29. The experiment in a line: Antiproliferative activity against human HT-29 cells assessed as reduction in cell proliferation by IncuCyte live-cell imaging analysis. Format: functional, cell-based.
Assay [7] concerns HT-29. The experiment in a line: Antiproliferative activity against human HT-29 cells assessed as reduction in cell proliferation by phase contrast microscopy. Format: functional, cell-based.
Assay [8] concerns HT-29. The assay can be described thus: Antiproliferative activity against human HT-29 cells assessed as reduction in cell proliferation at 10 ug/ml after 72 hrs by phase contrast microscopy. Format: functional, cell-based.
For assay [9], the system named is HT-29. The experiment in a line: Antiproliferative activity against human HT-29 cells assessed as increase in dead cell population by IncuCyte live-cell imaging analysis. The class given is functional, cell-based.
Assay [10] has as its system HT-29. The assay can be described thus: Antiproliferative activity against human HT-29 cells assessed as increase in dead cell population at 10 ug/ml measured after 14 hrs by IncuCyte live-cell imaging analysis. The class given is functional, cell-based.
For assay [11], the system named is HT-29. The experiment in a line: Ratio of test compound effect to cabozantinib effect for antiproliferative activity against human HT-29 cells assessed as increase in dead cell population measured after 14 hrs by IncuCyte live-cell imaging analysis. Format: functional.
In assay [12] the test system is HT-29. The assay can be described thus: Antiproliferative activity against human HT-29 cells assessed as increase in dead cell population at 1.11 ug/ml measured after 66 hrs by IncuCyte live-cell imaging analysis. The class given is functional, cell-based.
The test system of assay [13] is HT-29. The experiment in a line: Induction of apoptosis in human HT-29 cells measured after 72 hrs by Annexin V-FITC/propidium iodide staining based FACS analysis. The class given is functional, cell-based.
The test system of assay [14] is HT-29. The assay can be described thus: Induction of apoptosis in human HT-29 cells assessed as early apoptotic cells at 5 ug/ml measured after 24 hrs by Annexin V-FITC/propidium iodide staining based FACS analysis (reference value: 4.9%). Format: functional. (In flow cytometry, cells or beads pass a laser one at a time.)
For assay [15], the system named is HT-29. The assay can be described thus: Induction of apoptosis in human HT-29 cells assessed as early apoptotic cells at 0.3 ug/ml measured after 24 hrs by Annexin V-FITC/propidium iodide staining based FACS analysis (reference value: 4.9%). The class given is functional.
The subject of assay [16] is HT-29. The assay can be described thus: Induction of apoptosis in human HT-29 cells assessed as early apoptotic cells at 1 ug/ml measured after 24 hrs by Annexin V-FITC/propidium iodide staining based FACS analysis (reference value: 4.9%). Format: functional.
For assay [17], the system named is HT-29. The assay can be described thus: Induction of apoptosis in human HT-29 cells assessed as early apoptotic cells at 3 ug/ml measured after 24 hrs by Annexin V-FITC/propidium iodide staining based FACS analysis (reference value: 4.9%). The class given is functional.
Assay [18] deals with T1, Receptor-type tyrosine-protein kinase FLT3 (Homo sapiens, UniProt P36888).
T1 sequence (P36888 whole entry): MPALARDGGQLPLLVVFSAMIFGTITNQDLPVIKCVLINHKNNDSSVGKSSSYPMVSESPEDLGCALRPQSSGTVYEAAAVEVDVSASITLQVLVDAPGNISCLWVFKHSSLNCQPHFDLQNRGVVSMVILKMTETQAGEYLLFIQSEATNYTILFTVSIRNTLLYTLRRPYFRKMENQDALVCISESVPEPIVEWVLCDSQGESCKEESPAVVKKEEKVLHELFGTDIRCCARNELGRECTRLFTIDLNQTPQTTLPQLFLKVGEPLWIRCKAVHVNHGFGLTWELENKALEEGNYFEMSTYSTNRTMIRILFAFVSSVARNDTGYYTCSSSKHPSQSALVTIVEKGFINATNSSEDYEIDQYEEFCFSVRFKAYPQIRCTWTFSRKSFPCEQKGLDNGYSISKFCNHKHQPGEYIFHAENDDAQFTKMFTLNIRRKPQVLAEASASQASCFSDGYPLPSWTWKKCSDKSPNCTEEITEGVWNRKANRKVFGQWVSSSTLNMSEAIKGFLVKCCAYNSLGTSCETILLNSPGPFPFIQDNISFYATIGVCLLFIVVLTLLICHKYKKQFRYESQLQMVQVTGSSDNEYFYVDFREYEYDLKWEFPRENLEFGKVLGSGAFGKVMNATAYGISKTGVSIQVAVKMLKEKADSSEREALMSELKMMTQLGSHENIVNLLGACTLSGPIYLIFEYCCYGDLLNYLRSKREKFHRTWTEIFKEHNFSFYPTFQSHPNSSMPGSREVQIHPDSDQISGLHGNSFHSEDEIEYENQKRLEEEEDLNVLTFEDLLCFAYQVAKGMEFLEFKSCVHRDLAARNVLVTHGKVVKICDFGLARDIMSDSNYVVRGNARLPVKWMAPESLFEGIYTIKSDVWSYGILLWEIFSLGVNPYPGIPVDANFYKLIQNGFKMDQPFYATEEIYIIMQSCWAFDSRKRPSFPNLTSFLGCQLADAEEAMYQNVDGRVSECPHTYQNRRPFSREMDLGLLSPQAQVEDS
The experiment in a line: Inhibition of FLT3 (unknown origin) using FAM-labelled peptide as substrate measured after 10 mins by mobility shift assay.

The target in assay [19] is Vascular endothelial growth factor receptor 2 (Homo sapiens, UniProt P35968). The experiment in a line: Inhibition of VEGFR2 (unknown origin) using FAM-labelled peptide as substrate measured after 10 mins by mobility shift assay.
For assay [20], the target named is Insulin-like growth factor 1 receptor (Homo sapiens, UniProt P08069). The assay can be described thus: Inhibition of IGF1R (unknown origin) using FAM-labelled peptide as substrate measured after 10 mins by mobility shift assay.
Assay [21] deals with Mast/stem cell growth factor receptor Kit (Homo sapiens, UniProt P10721). The assay can be described thus: Inhibition of c-KIT (unknown origin) using FAM-labelled peptide as substrate measured after 10 mins by mobility shift assay.
The target in assay [22] is Proto-oncogene tyrosine-protein kinase Src (Homo sapiens, UniProt P12931). The assay can be described thus: Inhibition of c-SRC (unknown origin) using FAM-labelled peptide as substrate measured after 10 mins by mobility shift assay.
The target of assay [23] is Epidermal growth factor receptor (Homo sapiens, UniProt P00533). The experiment in a line: Inhibition of EGFR (unknown origin) using FAM-labelled peptide as substrate measured after 10 mins by mobility shift assay.

The IC50 is the concentration needed to halve the response being measured.

Calls of active or inactive are those of the source. The calls are words filed in the database; no cut-off is given here. Some results are limits rather than exact numbers.

Proto-oncogene tyrosine-protein kinase Src, sequence (P12931 2-536 limits assumed): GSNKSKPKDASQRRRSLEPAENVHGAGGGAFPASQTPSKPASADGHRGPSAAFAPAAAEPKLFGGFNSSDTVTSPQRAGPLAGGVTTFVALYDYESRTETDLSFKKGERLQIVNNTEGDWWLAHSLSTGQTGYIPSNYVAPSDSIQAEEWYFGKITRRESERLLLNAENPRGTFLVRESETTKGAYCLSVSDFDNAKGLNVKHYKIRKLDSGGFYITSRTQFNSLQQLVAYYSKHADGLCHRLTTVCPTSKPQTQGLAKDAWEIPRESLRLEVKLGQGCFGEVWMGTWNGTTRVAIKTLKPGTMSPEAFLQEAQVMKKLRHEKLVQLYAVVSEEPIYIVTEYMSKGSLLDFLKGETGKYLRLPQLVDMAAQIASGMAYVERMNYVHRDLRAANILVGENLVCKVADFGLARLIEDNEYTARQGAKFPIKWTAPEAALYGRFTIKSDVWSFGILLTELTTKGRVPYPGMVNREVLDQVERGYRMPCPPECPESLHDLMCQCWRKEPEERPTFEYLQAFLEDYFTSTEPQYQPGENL
Vascular endothelial growth factor receptor 2, sequence (P35968 whole entry): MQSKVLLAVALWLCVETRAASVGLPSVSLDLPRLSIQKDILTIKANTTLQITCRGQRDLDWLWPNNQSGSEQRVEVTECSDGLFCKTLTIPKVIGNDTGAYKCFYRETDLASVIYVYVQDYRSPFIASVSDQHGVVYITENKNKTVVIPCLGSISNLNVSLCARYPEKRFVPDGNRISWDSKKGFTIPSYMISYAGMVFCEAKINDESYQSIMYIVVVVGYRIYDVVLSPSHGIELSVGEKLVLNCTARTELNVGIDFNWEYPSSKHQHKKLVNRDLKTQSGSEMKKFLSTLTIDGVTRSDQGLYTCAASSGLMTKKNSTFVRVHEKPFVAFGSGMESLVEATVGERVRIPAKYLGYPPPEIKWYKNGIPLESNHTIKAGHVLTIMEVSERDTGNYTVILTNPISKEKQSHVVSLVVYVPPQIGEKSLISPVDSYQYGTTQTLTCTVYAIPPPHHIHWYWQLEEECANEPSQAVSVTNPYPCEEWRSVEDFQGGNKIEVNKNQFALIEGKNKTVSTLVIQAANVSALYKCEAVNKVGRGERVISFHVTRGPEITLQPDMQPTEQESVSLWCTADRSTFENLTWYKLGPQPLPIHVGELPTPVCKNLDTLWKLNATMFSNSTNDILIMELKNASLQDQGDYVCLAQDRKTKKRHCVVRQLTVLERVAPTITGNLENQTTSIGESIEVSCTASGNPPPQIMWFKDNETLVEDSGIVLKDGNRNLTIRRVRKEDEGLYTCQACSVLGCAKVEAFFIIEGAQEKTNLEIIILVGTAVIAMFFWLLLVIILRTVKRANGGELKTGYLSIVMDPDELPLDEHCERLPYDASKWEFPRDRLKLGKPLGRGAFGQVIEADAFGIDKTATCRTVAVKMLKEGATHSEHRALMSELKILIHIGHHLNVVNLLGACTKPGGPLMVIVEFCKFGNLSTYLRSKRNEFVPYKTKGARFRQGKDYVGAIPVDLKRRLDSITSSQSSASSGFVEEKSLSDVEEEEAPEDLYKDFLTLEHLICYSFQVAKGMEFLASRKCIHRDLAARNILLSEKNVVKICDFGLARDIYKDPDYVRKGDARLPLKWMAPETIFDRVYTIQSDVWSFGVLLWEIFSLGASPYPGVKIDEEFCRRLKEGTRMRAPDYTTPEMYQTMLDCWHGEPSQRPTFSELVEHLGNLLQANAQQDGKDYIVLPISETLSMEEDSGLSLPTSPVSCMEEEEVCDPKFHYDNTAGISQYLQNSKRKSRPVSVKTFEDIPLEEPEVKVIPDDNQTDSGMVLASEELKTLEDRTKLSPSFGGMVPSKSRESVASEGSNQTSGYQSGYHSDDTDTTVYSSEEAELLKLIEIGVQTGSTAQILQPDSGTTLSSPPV
Mast/stem cell growth factor receptor Kit, sequence (P10721 whole entry): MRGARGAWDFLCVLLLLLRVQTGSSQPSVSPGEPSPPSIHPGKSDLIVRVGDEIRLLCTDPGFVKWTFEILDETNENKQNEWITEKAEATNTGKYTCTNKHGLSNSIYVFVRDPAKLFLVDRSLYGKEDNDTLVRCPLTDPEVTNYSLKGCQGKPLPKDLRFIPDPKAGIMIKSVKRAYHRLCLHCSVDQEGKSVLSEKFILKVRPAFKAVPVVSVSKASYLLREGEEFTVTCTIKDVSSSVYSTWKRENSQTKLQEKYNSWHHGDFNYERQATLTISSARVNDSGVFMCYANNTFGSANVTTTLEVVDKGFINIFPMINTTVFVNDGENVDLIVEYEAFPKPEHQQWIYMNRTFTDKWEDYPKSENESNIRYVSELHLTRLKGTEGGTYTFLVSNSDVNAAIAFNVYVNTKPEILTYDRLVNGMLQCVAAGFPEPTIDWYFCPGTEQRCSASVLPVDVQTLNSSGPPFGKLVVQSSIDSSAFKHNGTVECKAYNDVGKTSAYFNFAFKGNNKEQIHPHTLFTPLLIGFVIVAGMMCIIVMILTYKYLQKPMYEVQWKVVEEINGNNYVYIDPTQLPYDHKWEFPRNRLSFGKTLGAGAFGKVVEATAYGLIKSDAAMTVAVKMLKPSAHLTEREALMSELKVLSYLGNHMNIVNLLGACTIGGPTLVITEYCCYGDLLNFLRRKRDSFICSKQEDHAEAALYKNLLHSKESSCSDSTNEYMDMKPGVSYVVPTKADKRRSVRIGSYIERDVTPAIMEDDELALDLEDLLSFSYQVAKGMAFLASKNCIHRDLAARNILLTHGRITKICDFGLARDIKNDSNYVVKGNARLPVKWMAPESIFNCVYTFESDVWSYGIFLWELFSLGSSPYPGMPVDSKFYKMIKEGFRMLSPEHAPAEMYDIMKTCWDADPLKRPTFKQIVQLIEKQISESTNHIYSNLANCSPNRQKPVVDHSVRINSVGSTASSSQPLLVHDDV
Epidermal growth factor receptor, sequence (P00533 whole entry): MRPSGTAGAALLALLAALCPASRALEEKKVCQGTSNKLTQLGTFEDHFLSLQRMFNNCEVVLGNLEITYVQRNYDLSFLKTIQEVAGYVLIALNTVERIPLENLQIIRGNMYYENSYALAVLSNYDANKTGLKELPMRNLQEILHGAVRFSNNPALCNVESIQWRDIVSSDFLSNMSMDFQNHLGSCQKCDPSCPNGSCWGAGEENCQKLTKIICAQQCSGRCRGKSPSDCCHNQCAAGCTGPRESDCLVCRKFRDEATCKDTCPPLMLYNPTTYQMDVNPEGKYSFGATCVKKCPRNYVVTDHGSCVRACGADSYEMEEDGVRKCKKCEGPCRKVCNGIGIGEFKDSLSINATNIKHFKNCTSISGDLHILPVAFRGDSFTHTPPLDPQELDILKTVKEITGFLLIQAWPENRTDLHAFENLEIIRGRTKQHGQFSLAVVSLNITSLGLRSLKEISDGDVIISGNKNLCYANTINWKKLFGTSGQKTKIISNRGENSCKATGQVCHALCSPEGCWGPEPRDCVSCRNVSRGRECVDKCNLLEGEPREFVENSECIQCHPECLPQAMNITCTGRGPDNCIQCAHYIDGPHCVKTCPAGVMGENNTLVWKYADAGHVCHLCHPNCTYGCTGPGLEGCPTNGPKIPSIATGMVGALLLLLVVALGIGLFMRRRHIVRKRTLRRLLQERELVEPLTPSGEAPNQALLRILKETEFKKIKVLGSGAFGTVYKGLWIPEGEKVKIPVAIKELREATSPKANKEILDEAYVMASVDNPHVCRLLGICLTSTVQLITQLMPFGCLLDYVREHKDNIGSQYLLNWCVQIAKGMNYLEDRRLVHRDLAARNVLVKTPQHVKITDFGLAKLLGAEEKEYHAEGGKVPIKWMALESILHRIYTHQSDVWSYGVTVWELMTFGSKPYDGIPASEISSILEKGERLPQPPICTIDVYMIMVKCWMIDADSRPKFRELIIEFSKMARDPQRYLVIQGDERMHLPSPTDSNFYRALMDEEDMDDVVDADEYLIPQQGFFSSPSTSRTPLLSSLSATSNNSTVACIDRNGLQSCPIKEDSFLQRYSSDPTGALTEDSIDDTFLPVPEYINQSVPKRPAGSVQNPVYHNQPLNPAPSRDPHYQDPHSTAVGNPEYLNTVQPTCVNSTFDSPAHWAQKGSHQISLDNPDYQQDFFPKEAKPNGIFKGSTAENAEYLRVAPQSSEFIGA

For `COc1cc2c(Oc3ccc(C4SCC(=O)N4NC(=O)Nc4cccc(Cl)c4)cc3)ccnc2cc1OCCCN1CCOCC1` (stereo unspecified), the IC50 in the assay with A549 was found to be 8.9 µM; in the assay on HT-29 [1], 7.7 µM.

Turning to `COc1cc2c(Oc3ccc(C4SCC(=O)N4NC(=O)Nc4ccc(F)cc4F)cc3Cl)ccnc2cc1OCCCN1CCOCC1` (stereo unspecified), the results for the half-inhibitory concentration (IC50) in the assay with A549 and with HT-29 [1] were 6.7 µM and 2.4 µM, respectively.

Turning to `CCN1CCN(CCCOc2cc3nccc(Oc4ccc(C5SCC(=O)N5NC(=O)Nc5ccc(F)cc5F)cc4F)c3cc2OC)CC1` (stereo unspecified), the values for the IC50 with A549 and in the assay with HT-29 [1] were 1 µM and 0.32 µM, respectively.

For `COc1cc2nccc(Oc3ccc(NC(=O)C4(C(=O)Nc5ccc(F)cc5)CC4)cc3)c2cc1OC` [CABOZANTINIB], the IC50 in the assay on A549 worked out at 8.5 µM. Further, the result in the assay with HT-29 [2], in the assay on HT-29 [3], in the assay with HT-29 [4] and with HT-29 [5] was Active.

Turning to `COc1cc2c(Oc3ccc(C4SCC(=O)N4NC(=O)Nc4ccccc4F)cc3)ccnc2cc1OCCCN1CCOCC1` (stereo unspecified), the IC50 in the assay on A549 came to 7 µM.

Turning to `COc1cc2c(Oc3ccc(C4SCC(=O)N4NC(=O)Nc4ccc(F)cc4)cc3)ccnc2cc1OCCCN1CCOCC1` (stereo unspecified), the IC50 in the assay on A549 was 4.9 µM; in the assay with HT-29 [1] it was 4.8 µM.

In the case of `COc1cc2c(Oc3ccc(C4SCC(=O)N4NC(=O)Nc4ccccc4Cl)cc3)ccnc2cc1OCCCN1CCOCC1` (stereo unspecified), the IC50 was 8.5 µM in the assay on A549 and 6.5 µM in the assay on HT-29 [1].

For the molecule `COc1cc2c(Oc3ccc(C4SCC(=O)N4NC(=O)Nc4ccc(F)cc4F)cc3F)ccnc2cc1OCCCN1CCOCC1` (stereo unspecified), the figures for the IC50 with A549 and with HT-29 [1] were 2.1 µM and 0.86 µM, respectively.

As for `COc1cc2c(Oc3ccc(C4SCC(=O)N4NC(=O)Nc4cc(F)cc(F)c4)cc3)ccnc2cc1OCCCN1CCOCC1` (stereo unspecified), the IC50 in the assay with A549 was 6.1 µM; in the assay with HT-29 [1] it was 4.9 µM.

For `COc1cc2c(Oc3ccc(C4SCC(=O)N4NC(=O)Nc4ccc(F)c(F)c4F)cc3)ccnc2cc1OCCCN1CCOCC1` (stereo unspecified), the IC50 in the assay with A549 is 5.5 µM; with HT-29 [1] it was 4.4 µM.

On to `COc1cc2c(Oc3ccc(C4SCC(=O)N4NC(=O)Nc4ccc(F)cc4F)cc3)ccnc2cc1OCCCN1CCOCC1` (stereo unspecified), for which the figures for the IC50 with A549 and in the assay on HT-29 [1] were 6 µM and 2.3 µM, respectively.

Take `COc1cc2c(Oc3ccc(C4SCC(=O)N4NC(=O)Nc4ccc(F)cc4F)c(Cl)c3)ccnc2cc1OCCCN1CCOCC1` (stereo unspecified): the IC50 with A549 is 6.1 µM; in the assay with HT-29 [1] it was 2.8 µM.

Turning to `COc1cc2c(Oc3ccc(C4SCC(=O)N4NC(=O)Nc4ccccc4)cc3)ccnc2cc1OCCCN1CCOCC1` (stereo unspecified), the IC50 was determined as 8.7 µM in the assay with A549 and 5.2 µM in the assay with HT-29 [1].

Regarding `COc1cc2c(Oc3ccc(C4SCC(=O)N4NC(=O)Nc4ccc(F)cc4F)c(F)c3)ccnc2cc1OCCCN1CCOCC1` (stereo unspecified), the IC50 was 4.6 µM in the assay on A549 and 1.3 µM with HT-29 [1].

Regarding `COc1cc2c(Oc3ccc(C4SCC(=O)N4NC(=O)Nc4ccc(F)cc4F)cc3F)ccnc2cc1OCCCN1CCCN(C)CC1` (stereo unspecified), the values for the IC50 in the assay with A549 and with HT-29 [1] were 0.71 µM and 0.18 µM, respectively.

Consider `COc1cc2c(Oc3ccc(C4SCC(=O)N4NC(=O)Nc4ccc(Cl)cc4)cc3)ccnc2cc1OCCCN1CCOCC1` (stereo unspecified), for which the IC50 in the assay with A549 worked out at 6.7 µM; in the assay with HT-29 [1], 6.6 µM.

For `COc1cc2c(Oc3ccc(C4SCC(=O)N4NC(=O)Nc4ccc(F)cc4F)cc3F)ccnc2cc1OCCCN1CCN(C)CC1` (stereo unspecified), the IC50 in the assay on A549 is 0.65 µM; in the assay on HT-29 [1], 0.11 µM; in assay [18], 0.0086 µM; in assay [19] it was 0.0187 µM; in assay [20], 6.66 µM; in assay [21], 0.352 µM. For the same molecule, the values for the IC50 in [22] and in assay [23] were 0.383 µM and 0.4 µM, respectively. Besides, the Activity entry was “Dose-dependent effect” with HT-29 [6]; “Dose-dependent effect” in the assay on HT-29 [7]; “Dose-dependent effect” with HT-29 [9]; “Dose-dependent effect” in the assay on HT-29 [13]; 65.5% with HT-29 [14]; 56.6% in the assay with HT-29 [15]. The Activity in the assay with HT-29 [16] came to 62%; in the assay on HT-29 [17], 69.4%. Besides, the result with HT-29 [8], in the assay with HT-29 [10], in the assay on HT-29 [12], in the assay on HT-29 [4] and in the assay with HT-29 [5] was Active. In the assay on HT-29 [11], the Ratio is listed as above 10.

(Values after ChEMBL document CHEMBL4392844 (Bioorg Med Chem, 2019).)
